# Source: ChEMBL document CHEMBL3352134, “In silico and pharmacological screenings identify novel serine racemase inhibitors” (Bioorg Med Chem Lett, 2014)
# Assays:
# Serine racemase [1] = target: T1, Serine racemase (Homo sapiens, UniProt Q9GZT4); experiment: Binding affinity to serine recemase (unknown origin)
# T1 sequence (Q9GZT4 whole entry): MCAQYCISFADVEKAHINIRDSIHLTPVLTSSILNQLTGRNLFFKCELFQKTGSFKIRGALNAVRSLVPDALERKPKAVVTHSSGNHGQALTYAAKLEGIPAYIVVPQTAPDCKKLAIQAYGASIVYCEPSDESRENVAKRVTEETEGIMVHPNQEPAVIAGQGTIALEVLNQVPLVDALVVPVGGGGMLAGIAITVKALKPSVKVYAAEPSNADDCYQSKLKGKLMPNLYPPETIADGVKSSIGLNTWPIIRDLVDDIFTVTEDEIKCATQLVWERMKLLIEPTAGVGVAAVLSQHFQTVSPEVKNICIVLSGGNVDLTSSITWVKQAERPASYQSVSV
# [2] = target: T2, Serine racemase (Homo sapiens) (UniProt Q9GZT4); experiment: Inhibition of full length human recombinant serine recemase C2DC6D mutant expressed in Escherichia coli BL21 (DE3) assessed as D-serine production at 1 mM after 10 mins by Saccharomyces cerevisiae Dsd1SC based D-serine detection assay
# T2 sequence (whole entry): T1 sequence (Q9GZT4 whole entry)
# Serine racemase [3] = target: Serine racemase (Homo sapiens, UniProt Q9GZT4); experiment: Inhibition of full length human recombinant serine recemase C2DC6D mutant expressed in Escherichia coli BL21 (DE3) assessed as D-serine production after 10 mins by Saccharomyces cerevisiae Dsd1SC based D-serine detection assay
Ki (Serine racemase [1]),inhibition [2],IC50 (Serine racemase [3]),Compound
33 µM,59%,1310 µM,O=C(O)CC(=O)O [MALONIC ACID]
11 µM,,,N[C@H](C(=O)O)[C@@H](O)C(=O)O
366 µM,,,NCC(=O)O [GLYCINE]
